# Results reported in patent US20080064665A1, “Combination approaches to cancer treatment” (priority 2006, published 2008).
# Values joined by “and” are separate entries in the source; they are usually repeats but may differ in a detail not shown here. Equal values may be shown once.
# What was measured:
# [1] = system: H460 human lung cancer xenografts; experiment: Growth delay and survival of H460 xenografts, PR-104, docetaxel and schedules thereof; type: in vivo, CD-1 nude mice
# Description: Specific pathogen-free homozygous nu/nu (CD-1) nu/nu [NIH-III] (Charles River Laboratories, Wilmington, Mass.) were provided by the Animal Resources Unit (University of Auckland) at 7 to 9 weeks of age. Mice were housed in groups of 4-7 in a temperature-controlled room (22±2° C.) with a 12-hour light/dark cycle and were fed ad libitum water and a standard rodent diet (Harlan Teklad diet 2018i). All animals were uniquely identifiable by ear tag number. All animal protocols were approved by the Animal Ethics Committee of the University of Auckland (AEC approval C337).
# A single cell suspension was prepared by trypsinisation (1× Trypsin/EDTA) from spinner culture, counted, and suspended in ∝MEM to give required cell concentration, as listed below. Mice were inoculated (100 μL) at a single subcutaneous site (right flank) using a 1 ml syringe with a 26 gauge needle.
# Seven days post-inoculation, tumors were measured three times per week until they reached the treatment size (mean diameter 5.8-8.2 mm; average 7.0 mm). Mean tumor diameter was averaged from the longest diameter (length) multiplied by the perpendicular measurement (width). Tumor diameters were estimated when mean diameter was below 5 mm, and measured with electronic callipers when ≧5 mm.
# Tumor volume was calculated using the formula:
# where L=length and w=width in mm of the carcinoma.
# (§1) Excess compound was discarded.
# Tumor bearing mice were assigned randomly to treatment groups when tumor diameter reached treatment size. Animals were rejected if xenografts show evidence of: (i) attachment to underlying muscle (due to risk of local invasion), (ii) signs of ulceration, or (iii) indolent tumor growth. Drug administration begins on the day of assignment. In general, 0.7-0.8 of the inoculated population is assigned to the experiment. Drug administration was undertaken as outlined above.
# During and after treatment, tumor size and body weights were measured regularly. Animals were culled if (i) the average diameter of the tumor exceeds 15 mm (survival end-point), (ii) body weight loss exceeds 15% of pre-treatment value, (iii) there is evidence of prolonged or excessive morbidity, or (iv) tumor ulceration occurred. Each experiment was terminated at day 120 after treatment initiation.
# Kaplan-Meier plots were constructed and median survival was calculated (TTE50). The statistical significance of any differences in overall survival between treatment groups and control was analysed by Log Rank P statistical test. The log-rank test was calculated using XLStat Life (Kovach Computing Services Ltd). The statistic significance in overall survival between each treatment group and control was determined by testing the null hypothesis that the survival curves are identical in the two populations.
# The time for individual tumors to increase in volume by 4 fold relative to treatment day-1 (relative tumor volume×4−RTV^4) was recorded. The median RTV^4 is calculated for each group and the difference in RTV^4 between control and treatment groups is described as the Tumor Growth Delay (TGD) in days. RTV^4 values notmalise for any bias in tumor treatment volume on day-1. The RTV^4 of each treatment group is tested for statistical difference from control group by unpaired t-test and Mann Whitney U test (means and medians, respectively).
# In circumstances where long-term controls (LTCs) occur, an RTV^4 value equal to the total duration of the experiment is assigned for the purposes of statistical analysis (usually 120 days). Where one or more LTC is present the median RTV^4 of each treatment group is tested for statistical difference from control group by Mann Whitney U test only. The statistical analysis was conducted at a p level of 0.05 (two-tailed). SigmaStat v3.10 was used for the statistical analysis of RTV^4 values. SigmaPlot v9 was used for all graph plots.
# Weight loss nadirs (time independent maxima) were recorded for each treatment group.
# [2] = system: A2780 human ovarian cancer xenografts; experiment: Growth delay and survival of A2780 xenografts, PR-104 and docetaxel; type: in vivo, CD-1 nude mice
# Description: (§2) End-point: After treatment, tumor size and body weights were measured regularly and mice were culled either when the average diameter of the tumor reached 15 mm (end-point), the tumor ulcerated or when the body weight change reached −15%. Experiment was ended and all remaining mice culled 120 days after treatment.
# (§3) Analysis: End-points will be expressed as TTE50, Median RTV^4 and plotted in Kaplan-Meier Plots and analysed by Log Rank P statistical test.
# [3] = system: 22RV1 androgen-resistant human prostate cancer xenograft; experiment: Growth delay and survival of 22RV1 xenograft, PR-104 and docetaxel; type: in vivo, CD-1 nude mice
# Description: as §2, §3
# [4] = system: SiHa human cervical cancer xenograft; experiment: Growth delay and survival of SiHa xenograft, PR-104 and docetaxel; type: in vivo, Rag-1^null mice
# Description: Analysis: End-points will be expressed as TTE50, Median RTV^4 and plotted in Kaplan-Meier Plots and analysed by Log Rank P statistical test. Weight loss nadir will be compared between schedules.
# [5] = system: SiHa cervical cancer xenografts; experiment: Excision assay of SiHa xenografts (clonogenic log cell kill); type: in vivo, CD-1 Fox^nu mice; conditions: SN 28343 91.2 mg/kg, SN 29303 375 mg/kg; for cell kill versus controls in excision assay (in words): SiHa human cervical tumor xenograft, docetaxel 65 mg/kg i.p.; for Log Cell Kill versus controls (Mean ± SEM): SiHa tumors excised 18 hours after treatment, docetaxel 65 mg/kg, i.p.
# Description: As for Part 1 except for except where noted below.
# as §1
# Date, body weights (used to adjust injection volume), tumor diameter, unique identifier (tail markings), body weight, and volume to be injected were recorded. Animals were dosed with the test articles i.p. following a defined treatment schedule:
# 18 hours after treatment the mice were culled by cervical dislocation and tumors removed by dissection, in a sterile laminar flow hood. Whole tumor weights were recorded. Tumors were minced using scissors or scalpels until a fine minceate was obtained, and up to 500 mg of minceate was transferred into a pre-tiered Falcon®14 ml test tube containing a sterile magnetic spin bar and re-weighed.
# Samples were then incubated in 37° C. water bath for 30 min over a magnetic stirrer.
# After incubation any undissociated material was allowed to settle for 1 minute. […] Pellets were re-suspended in 10 ml of medium. Cells/ml was determined using an electronic particle counter (Beckman Coulter Electronics, Z2 model). Samples were then diluted to 1×10^5cells/ml and 6-fold serial dilutions made down to 4.6×10^2cells/ml.
# 1 ml of each sample was plated in triplicate for each dilution into appropriately labelled Falcon® P-60 tissue culture dishes containing 4 ml of αMEM+10% FCS+PS.
# Where possible, all plates were counted; those colonies counted=larger than 50 cells, confirmed with the light microscope. TMTC was recorded for those plates where there were too many colonies to count.
# The criteria for selecting the best dilution to use for calculating plating efficiency (PE):
# Higher dilution count>100 colonies (average); lower dilution 10-100 colonies, use PE from the dilution with fewer colonies.
# Higher dilution count >100; lower dilution count <20, use average data from both.
# Higher dilution count <100; lower dilution count <20, use PE from the dilution with more colonies.
# Higher dilution count <100; lower dilution count >20, use average data from both. Note: For the 10^5 dilution, take as the “lower limit” colony count a total count of 30, (sum of all replicates).
# [6] = H460 xenograft, PR-104 652 mg/kg, docetaxel 73 mg/kg, q2w×2
# [7] = A2780 xenograft, PR-104 652 mg/kg, docetaxel 73 mg/kg, q2w×2
# [8] = 22RV1 xenograft, PR-104 652 mg/kg, docetaxel 73 mg/kg, q2w×2
# [9] = Rag-1 mice, PR-104 652 mg/kg, docetaxel 73 mg/kg, q2w×2
smiles,measurement,setting,value
"CS(=O)(=O)OCCN(CCBr)c1c(C(=O)NCCOP(=O)(O)O)cc([N+](=O)[O-])cc1[N+](=O)[O-] [PR-104, 2-[(2-bromoethyl)-2,4-dinitro-6-[[[2-(phosphonooxy)ethyl]amino]-carbonyl]anilino]ethyl methane sulfonate]",Weight Loss Nadir (%),"[1]; H460 xenograft, CD-1 nude mice, mean body weight loss nadir, PR-104 652 mg/kg, docetaxel 73 mg/kg, i.p., q2w×2",−4.9 ± 1.0%
same,Unscheduled deaths,"[1]; H460 xenograft, female CD-1 nude mice, total dose PR-104 652 mg/kg, docetaxel 73 mg/kg, i.p., q2w×2",0
same,"LTC (long term control, failed to reach end-point within duration of experiment)","[1]; H460 xenograft, 120 day experiment, PR-104 652 mg/kg, docetaxel 73 mg/kg, q2w×2",0
same,Median RTV^4 (median time for tumor volume to increase 4-fold),[1]; [6],23 days
same,TGD (tumor growth delay; relative gain in median RTV^4 versus control),[1]; [6],187.5%
same,TTE50 (median time for tumor end-point to occur from day of treatment),"[1]; H460 xenograft, end-point >15 mm mean diameter, PR-104 652 mg/kg, docetaxel 73 mg/kg, q2w×2",29 days
same,Gain TTE50 (improvement in median survival),"[1]; H460 xenograft, versus control (11 days), PR-104 652 mg/kg, docetaxel 73 mg/kg, q2w×2",18 days
same,activity against H460 xenograft (in words),[1]; tumor growth delay and survival end-points,significant single agent activity
same,Weight Loss Nadir (%),"[2]; A2780 xenograft, CD-1 nude mice, PR-104 652 mg/kg, docetaxel 73 mg/kg, i.p., q2w×2",−6.1±1.2%
same,LTC (long term control),"[2]; A2780 xenograft, 120 day experiment",0
same,Median RTV^4,[2]; [7],8 days
same,TGD (relative gain in median RTV^4 versus control),[2]; [7],78% and 77.8%
same,TTE50,[2]; [7],10 days
same,improvement in median tumor growth delay,"[2]; A2780 xenograft, versus control",3.5 days
same,Gain TTE50 (improvement in median survival),"[2]; A2780 xenograft, versus control (6 days)",4 days
same,activity against A2780 xenograft (in words),[2]; based on tumor growth delay,no activity
same,activity against 22RV1 xenograft (in words),[3]; 22RV1 prostate xenograft model,modest single-agent antitumor activity
same,Weight Loss Nadir (%),"[3]; 22RV1 xenograft, CD-1 nude mice, PR-104 652 mg/kg, docetaxel 73 mg/kg, i.p., q2w×2",−2.1±0.5%
same,LTC (long term control),"[3]; 22RV1 xenograft, 120 day experiment",0
same,Median RTV^4,[3]; [8],23 days
same,TGD (relative gain in median RTV^4 versus control; TGI in text),[3]; [8],156%
same,TTE50,[3]; [8],26.5 days
same,median tumor growth delay,"[3]; 22RV1 xenograft, versus control",14 days
same,Gain TTE50 (improvement in median survival),"[3]; 22RV1 xenograft, versus control (9.5 days)",17 days
same,activity against SiHa xenograft (in words),[4]; Rag-1 mice,modestly active
same,LTC (long term control),"[4]; Rag-1 mice, 120 day experiment",0
same,Weight Loss Nadir (%),"[4]; Rag-1 mice, PR-104 652 mg/kg, docetaxel 73 mg/kg, i.p., q2w×2",−2.2±1.2%
same,Median RTV^4,[4]; [9],16 days
same,TGD (relative gain in median RTV^4 versus control),[4]; [9],33.3%
same,TTE50 (median time for tumor end-point to occur),[4]; [9],25 days
same,Day of death,"[4]; Rag-1 mice, day of unscheduled death",14^B
same,improvement in tumor growth delay,"[4]; Rag-1 mice, versus control",4 days
same,Gain TTE50 (improvement in median survival),"[4]; Rag-1 mice, versus control (17 days)",8 days
same,Unscheduled deaths,"[4]; female Rag-1 mice, total dose PR-104 652 mg/kg, docetaxel 73 mg/kg, i.p., q2w×2",1
"O=C(NCCOP(=O)(O)O)c1cc([N+](=O)[O-])cc([N+](=O)[O-])c1N(CCBr)CCBr [SN 28343, 2-[Bis(2-bromoethyl)amino]-N-(2-hydroxyethyl)-3,5-dinitrobenzamide phosphate ester]",cell kill versus controls in excision assay (in words),[5],moderate and significant cell killing
same,Log Cell Kill versus controls (Mean ± SEM),[5],0.821
"CS(=O)(=O)OCCN(CCBr)c1ccc([N+](=O)[O-])c(C(=O)NCCCOP(=O)(O)O)c1[N+](=O)[O-] [SN 29303, 2-[2-bromoethyl)-2,4-dinitro-3-({[3-(phosphonooxy)propyl]amino}carbonyl) anilino]ethyl methanesulfonate]",cell kill versus controls in excision assay (in words),[5],moderate and significant cell killing
same,Log Cell Kill versus controls (Mean ± SEM),[5],0.770
